# Source: paper PMC12486440, “Design, synthesis, and in silico studies of new benzofuran–pyrazole hybrids as multi-kinase inhibitors with potential antiproliferative activity” (RSC Advances, 2025)
# How the values were obtained:
# [1] = tested on: SNB-19; settings: single dose 10 μM; CNS cancer
# [2] = tested on: A498; settings: single dose 10 μM; renal carcinoma
# [3] = tested on: SW-620; settings: single dose 10 μM; colon cancer
# [4] = tested on: MOLT-4; settings: single dose 10 μM; leukemia
# [5] = tested on: NCI-H23; settings: single dose 10 μM; non-small lung carcinoma
# [6] = tested on: K-562; settings: single dose 10 μM; leukemia
# [7] = tested on: SF-268; settings: single dose 10 μM; CNS cancer
# [8] = tested on: OVCAR-5; settings: single dose 10 μM; ovarian carcinoma
# [9] = tested on: UACC-62; settings: single dose 10 μM; melanoma
# [10] = tested on: SN12C; settings: single dose 10 μM; renal carcinoma
# [11] = tested on: UO-31; settings: single dose 10 μM; renal carcinoma
# [12] = tested on: SF-539; settings: single dose 10 μM; CNS cancer
# [13] = tested on: SF-295; settings: single dose 10 μM; CNS cancer
# [14] = tested on: EKVX; settings: single dose 10 μM; non-small lung carcinoma
# [15] = tested on: TK-10; settings: single dose 10 μM; renal carcinoma
# [16] = tested on: SNB-75; settings: single dose 10 μM; CNS cancer
# [17] = tested on: A549/ATCC; settings: single dose 10 μM; non-small lung carcinoma
# [18] = tested on: SR; settings: single dose 10 μM; leukemia
# [19] = tested on: MALME-3M; settings: single dose 10 μM; melanoma
# [20] = tested on: CAKI-1; settings: single dose 10 μM; renal carcinoma
# [21] = tested on: UACC-257; settings: single dose 10 μM; melanoma
# [22] = tested on: KM12; settings: single dose 10 μM; colon cancer
# [23] = tested on: NCI 60 cancer cell line panel; assay: NCI 60 full panel summary; settings: single dose 10 μM; mean over the NCI 60 panel
# [24] = tested on: OVCAR-4; settings: single dose 10 μM; ovarian carcinoma
# [25] = tested on: MCF7; settings: single dose 10 μM; breast carcinoma
# [26] = tested on: MDA-MB-435; settings: single dose 10 μM; melanoma
# [27] = tested on: HL-60(TB); settings: single dose 10 μM; leukemia
# [28] = tested on: 786–0; settings: single dose 10 μM; renal carcinoma
# [29] = tested on: NCI-H522; settings: single dose 10 μM; non-small lung carcinoma
# [30] = tested on: M14; settings: single dose 10 μM; melanoma
# [31] = tested on: MDA-MB-468; settings: single dose 10 μM; breast carcinoma
# [32] = tested on: NCI-H226; settings: single dose 10 μM; non-small lung carcinoma
# [33] = tested on: SK-MEL-5; settings: single dose 10 μM; melanoma
# [34] = tested on: RPMI-8226; settings: single dose 10 μM; leukemia
# [35] = tested on: HCT-15; settings: single dose 10 μM; colon cancer
# [36] = tested on: SK-MEL-2; settings: single dose 10 μM; melanoma
# [37] = tested on: PC-3; settings: single dose 10 μM; prostate carcinoma
# [38] = tested on: BT-549; settings: single dose 10 μM; breast carcinoma
# [39] = tested on: T-47D; settings: single dose 10 μM; breast carcinoma
# [40] = tested on: U251; settings: single dose 10 μM; CNS cancer
# [41] = tested on: SK-OV-3; settings: single dose 10 μM; ovarian carcinoma
# [42] = tested on: HOP-62; settings: single dose 10 μM; non-small lung carcinoma
# [43] = tested on: CCRF-CEM; settings: single dose 10 μM; leukemia
# [44] = tested on: HOP-92; settings: single dose 10 μM; non-small lung carcinoma
# [45] = tested on: HCC-2998; settings: single dose 10 μM; colon cancer
# [46] = tested on: HCT-116; settings: single dose 10 μM; colon cancer
# [47] = tested on: SK-MEL-28; settings: single dose 10 μM; melanoma
# [48] = tested on: HT29; settings: single dose 10 μM; colon cancer
compound,measurement,setting,value
3-(5-(Benzofuran-2-yl)-1-phenyl-1H-pyrazol-3-yl)-1-phenylprop-2-en-1-one [2a],GI%,[1],4.72%
same,GI%,[2],1.16%
same,GI%,[3],0.70%
same,GI%,[4],3.22%
same,GI%,[5],1.16%
same,GI%,[6],5.10%
same,GI%,[7],4.98%
same,GI%,[8],0.37%
same,GI%,[9],2.28%
same,GI%,[10],0.82%
same,GI%,[11],7.39%
same,GI%,[12],0.23%
same,GI%,[13],5.84%
same,GI%,[14],0.89%
same,GI%,[15],5.20%
same,GI%,[16],19.77%
same,GI%,[17],4.22%
same,GI%,[18],17.52%
same,GI%,[19],1.12%
same,GI%,[20],15.01%
same,GI%,[21],5.50%
same,GI%,[22],1.62%
same,Mean GI%,[23],0.37%
same,GI%,[24],1.64%
same,GI%,[25],5.38%
same,GI%,[26],0.51%
same,GI%,[27],7.64%
same,GI%,[28],1.14%
same,GI%,[29],3.81%
same,GI%,[30],0.52%
same,GI%,[31],0.19%
"c1ccc(C2=NNC(c3cn(-c4ccccc4)nc3-c3cc4ccccc4o3)C2)cc1 (centres unmarked) [3a, 3-(Benzofuran-2-yl)-4-(3-phenyl-4,5-dihydro-1H-pyrazol-5-yl)-1-phenyl-1H-pyrazole]",GI%,[32],8.13%
same,GI%,[1],5.98%
same,GI%,[33],0.18%
same,GI%,[34],2.58%
same,GI%,[35],75.31%
same,GI%,[2],6.22%
same,GI%,[3],79.60%
same,GI%,[4],0.33%
same,GI%,[6],6.49%
same,GI%,[36],−6.14%
same,GI%,[8],3.74%
same,GI%,[37],8.08%
same,GI%,[38],0.80%
same,GI%,[9],7.34%
same,GI%,[10],12.27%
same,GI%,[11],14.55%
same,GI%,[39],10.71%
same,GI%,[12],6.00%
same,GI%,[40],2.33%
same,GI%,[41],8.93%
same,GI%,[13],9.51%
same,GI%,[42],2.07%
same,GI%,[14],6.43%
same,GI%,[15],10.65%
same,GI%,[16],−10.52%
same,GI%,[17],3.63%
same,GI%,[18],15.96%
same,GI%,[43],12.98%
same,GI%,[44],22.19%
same,GI%,[19],3.67%
same,GI%,[45],66.78%
same,GI%,[20],11.52%
same,GI%,[21],6.06%
same,GI%,[46],99.83%
same,GI%,[22],62.60%
same,Mean GI%,[23],2.24%
same,GI%,[47],2.00%
same,GI%,[25],7.06%
same,GI%,[26],−6.37%
same,GI%,[27],0.73%
same,GI%,[48],54.87%
same,GI%,[29],3.69%
same,GI%,[30],0.57%
